From patent publication US8450479B2, “3-substituted-4-oxo-3,4-dihydro-imidazo[5,1-d][1,2,3,5-tetrazine-8-carboxylic acid amides and their use” (Pharminox Limited, priority 2007, dated 2013)
Where “and” joins values, the source holds several entries; their conditions need not be identical. Equal values may be shown once. Read-outs that look alike come from different tables or passages of the source.

Tests used:
Format in all cases: cell-based
[1] = test system: Colon HT29 (MMR proficient); assay: MTT assay for 7-day toxicity assay; conditions: Homo sapiens, HT-29, 168 h, Colon HT29 (MMR proficient); 7-day MTT; single determinations; read-out: GI50
Method: (§1) The cell culture techniques were carried out in a Class II microbiological safety cabinet which was swabbed with 70% IMS in distilled water before each use. Glioma cells were routinely cultured in Costar tissue culture flasks in RPMI 1640 liquid medium (containing 0.3 g/L L-glutamine and 2 g/L sodium bicarbonate) supplemented with 10% heat inactivated FBS (55-59° C.) for 1 hour to denature complement proteins which would otherwise evoke a cellular immune response resulting in cell lysis, 1% non-essential amino acids, 50 μg/mL gentamicin and 400 μg/mL G418 (vector selected reagent). Colorectal and melanoma cells were maintained in RPMI 1640 supplemented with 10% FBS. MRC-5 cells were cultured in EMEM. Cells were grown in a humidified incubator containing 5% CO2 at 37° C. Cells were sub-cultured when growth exceeded approximately 80% confluence, normally twice weekly. The medium was aspirated from the flask and approximately 0.8 mL trypsin-EDTA 1× solution added. The cells were re-incubated at 37° C. until they visibly detached from the flask. The cell suspension was then re-suspended in 5 mL medium and 0.5-1 mL of the cell suspension was transferred to a new flask (25 cm^2) with 7 mL culture medium. The cells were further incubated at 37° C. incubator. Cells were disposed after passage nearly 30 times in order to minimize phenotypic drift. New batches of cells were taken from liquid nitrogen storage by thawing rapidly (37° C. water bath) and re-suspension in a 25 cm^2 flask with 10 mL of culture medium. Two passages were allowed to resume normal growth. For long-term maintenance, viable cells at 60-80% confluence were detached by minimum amount of trypsin/EDTA and re-suspended in sterile filtered freezing medium (95% FBS, 5% DMSO), transferred to sterile cryogenic vials, and frozen overnight at −20° C. followed by −80° C. for 1-2 days and stored in liquid nitrogen for long term storage.
(§2) Most test compounds, including temozolomide, were prepared as stock solution (100 mM) in DMSO and stored at −20° C. for not more than 6 months.
(§3) This assay was first described in Mosmann, T., 1983, “Rapid colorimetric assay for cellular growth and survival: Application to proliferation and cytotoxicity assays”, Journal of Immunological Methods, Vol. 65, Nos. 1-2, pp. 55-63.
(§4) Glioma cell lines, SNB19 and U373, both MGMT transfected (i.e., SNB19M and U373M) and vector controls (i.e., SNB19V and U373V); colorectal carcinoma cell lines, HCT116, HT29, and DLD1; melanoma cell line, SKMEL-28; breast cell line, MCF-7; and normal human fetal lung fibroblast cell line, MRC-5; were harvested at 60-80% confluence—during the logarithmic phase of growth.
(§5) Following harvesting, cells in suspension were gently syringed through a 23 gauge needle to obtain a near-single cell suspension. The desired cell seeding densities were used and added into 96-well plates in 180 μL culture medium if only one test compound was to be added, or 160 μL if two test compounds were to be added in combination, which were allowed to attach at 37° C. (5% CO2) overnight. For the 7 day assay, the cell seeding density for different cell lines was as follows: SNB19V, SNB19M: 650 cells/well; U373V, U373M: 650 cells/well; SNB19VR, U373VR: 650 cells/well; HCT116, DLD-1, SKMEL-28, MRC-5, MCF-7: 400 cells/well.
(§6) The two peripheral lanes were used as blank wells (cell free) and filled with 200 μL of medium in order to minimise medium evaporation from the plate. A separate time zero (T0) plate was set up alongside other plates. Serial dilutions in tissue culture medium of a 100 mM stock of test compound in DMSO were prepared immediately before each assay to ten times the final concentrations required, and then 20 μL was added to each well (200 μL total media per well) to achieve final concentrations of 0.5 μM, 1 μM, 5 μM, 10 μM, 50 μM, 100 μM, 500 μM, and 1000 μM. A minimum of four wells received the same test compound concentration. […]

[2] = test system: Melanoma SKMEL-28 (MMR proficient); assay: MTT assay for 7-day toxicity assay; conditions: Homo sapiens, SK-MEL-28, 168 h, Melanoma SKMEL-28 (MMR proficient); 7-day MTT; single determinations; read-out: GI50
Method: as §1, §2, §3, §4, §5, §6

[3] = test system: Colon HCT116 (MMR mutated); assay: MTT assay for 7-day toxicity assay; conditions: Colon HCT116 (MMR mutated), 7-day MTT, single determinations, read-out: GI50
Method: as §1, §2, §3, §4, §5, §6

Glioma U373M (MGMT+) = assay: MTT assay for 7-day toxicity assay; conditions: Glioma U373M (MGMT+), 7-day MTT, single determinations
Method: as §1, with “Glioma cells were routinely cultured in Costar tissue culture flasks in RPMI 1640 liquid medium (containing 0.3 g/L L-glutamine and 2 g/L sodium bicarbonate) supplemented with 10% heat inactivated FBS (55-59° C.) for 1 hour to denature complement proteins which would otherwise evoke a cellular immune response resulting in cell lysis, 1% non-essential amino acids, 50 μg/mL gentamicin and 400 μg/mL G418 (vector selected reagent). Colorectal and melanoma cells were maintained in RPMI 1640 supplemented with 10% FBS.” left out
as §2, §4, §5
(§7) The two peripheral lanes were used as blank wells (cell free) and filled with 200 μL of medium in order to minimise medium evaporation from the plate. A separate time zero (T0) plate was set up alongside other plates. Serial dilutions in tissue culture medium of a 100 mM stock of test compound in DMSO were prepared immediately before each assay to ten times the final concentrations required, and then 20 μL was added to each well (200 μL total media per well) to achieve final concentrations of 0.5 μM, 1 μM, 5 μM, 10 μM, 50 μM, 100 μM, 500 μM, and 1000 μM. A minimum of four wells received the same test compound concentration. To control wells, including those in the T0 plate, 20 μL of medium was added. […] A separate plate treated in the same way, but free of test compound, was used as a measure of cell viability at the time of drug addition (day 0).
(§8) After incubation at 37° C., 5% CO2 for 7 days (or immediately for the day 0 plate), cell viability was quantified using the MTT assay. 50 μL of sterile filtered MIT (3-(4,5-dimethylthiazol-2-yl)-2,5-diphenyltetrazolium bromide) (2 mg/mL in phosphate buffered saline) were added to each well (final concentration 0.4 mg/mL) and the plates were re-incubated for 4 hours to allow metabolic conversion of MTT by dehydrogenases in viable cells to insoluble formazan crystals.
(§9) The intensity of absorbance is directly proportional to cell viability.

Glioma U373V (MGMT low) = assay: MTT assay for 7-day toxicity assay; conditions: Glioma U373V (MGMT low), 7-day MTT, single determinations
Method: as §1, with “Glioma cells were routinely cultured in Costar tissue culture flasks in RPMI 1640 liquid medium (containing 0.3 g/L L-glutamine and 2 g/L sodium bicarbonate) supplemented with 10% heat inactivated FBS (55-59° C.) for 1 hour to denature complement proteins which would otherwise evoke a cellular immune response resulting in cell lysis, 1% non-essential amino acids, 50 μg/mL gentamicin and 400 μg/mL G418 (vector selected reagent). Colorectal and melanoma cells were maintained in RPMI 1640 supplemented with 10% FBS.” left out
as §2, §4, §5, §7, §8, §9

Glioma SNB19V (MGMT−) = assay: MTT assay for 7-day toxicity assay; conditions: Glioma SNB19V (MGMT−), 7-day MTT, single determinations
Method: as §1, with “Glioma cells were routinely cultured in Costar tissue culture flasks in RPMI 1640 liquid medium (containing 0.3 g/L L-glutamine and 2 g/L sodium bicarbonate) supplemented with 10% heat inactivated FBS (55-59° C.) for 1 hour to denature complement proteins which would otherwise evoke a cellular immune response resulting in cell lysis, 1% non-essential amino acids, 50 μg/mL gentamicin and 400 μg/mL G418 (vector selected reagent). Colorectal and melanoma cells were maintained in RPMI 1640 supplemented with 10% FBS.” left out
as §2, §4, §5, §7, §8, §9

Glioma SNB19M (MGMT+) = assay: MTT assay for 7-day toxicity assay; conditions: Glioma SNB19M (MGMT+), 7-day MTT, single determinations
Method: as §1, with “Glioma cells were routinely cultured in Costar tissue culture flasks in RPMI 1640 liquid medium (containing 0.3 g/L L-glutamine and 2 g/L sodium bicarbonate) supplemented with 10% heat inactivated FBS (55-59° C.) for 1 hour to denature complement proteins which would otherwise evoke a cellular immune response resulting in cell lysis, 1% non-essential amino acids, 50 μg/mL gentamicin and 400 μg/mL G418 (vector selected reagent). Colorectal and melanoma cells were maintained in RPMI 1640 supplemented with 10% FBS.” left out
as §2, §4, §5, §7, §8, §9

Colon DLD1 = assay: MTT assay for 7-day toxicity assay; conditions: Homo sapiens, DLD-1, 168 h; Colon DLD1; 7-day MTT; single determinations; read-out: GI50
Method: as §1, §2, §3, §4, §5, §6

[4] = test system: glioma MGMT− and MGMT+ cell lines; assay: MTT assay, glioma lines as a whole
From the text: as §3, §4, §5
The two peripheral lanes were used as blank wells (cell free) and filled with 200 μL of medium in order to minimise medium evaporation from the plate. A separate time zero (T0) plate was set up alongside other plates. Serial dilutions in tissue culture medium of a 100 mM stock of test compound in DMSO were prepared immediately before each assay to ten times the final concentrations required, and then 20 μL was added to each well (200 μL total media per well) to achieve final concentrations of 0.5 μM, 1 μM, 5 μM, 10 μM, 50 μM, 100 μM, 500 μM, and 1000 μM. A minimum of four wells received the same test compound concentration. To control wells, including those in the T0 plate, 20 μL of medium was added. Previous assays had been carried out to verify that cell viability was not affected by the amount of DMSO added into the test compound-treated wells. A separate plate treated in the same way, but free of test compound, was used as a measure of cell viability at the time of drug addition (day 0).
as §8, with “crystals. The medium and any unconverted MTT was aspirated, 150 μL of DMSO was added to each well, and the plates were shaken on a plate shaker (Stuart Scientific 503) to ensure complete formazan solubilisation.” for “crystals.”
The intensity of absorbance is directly proportional to cell viability. A linear relationship exists between cell number and the amount of formazan and so the mean absorbance determined for each well of the same concentration can be used as a quantitative measure of viable cells compared to the controls. A graph of absorbance against drug concentration was plotted and the test compound concentration (GI50) causing 50% inhibition of control cell growth (absorbance increase from day 0) was calculated by interpolation.

[5] = test system: Normal Human Fetal Lung Fibroblast MRC-5; assay: MTT assay for 7-day toxicity assay; conditions: Normal Human Fetal Lung Fibroblast MRC-5, 7-day MTT, single determinations, read-out: GI50
Method: as §1, §2, §3, §4, §5, §6

[6] = test system: Glioma SNB19VR (MGMT−) (TMZ resistant); assay: MTT assay for 7-day toxicity assay; conditions: Glioma SNB19VR (MGMT−, TMZ resistant), 7-day MTT, single determinations, read-out: GI50
Method: as §1, §2, §3, §4, §5, §6

| SMILES | GI50 [1] | GI50 [2] | GI50 ([3]; Homo sapiens, HCT-116, 168 h) | GI50 (Glioma SNB19V (MGMT−); 168 h) | GI50 (Glioma SNB19V (MGMT−)) | GI50 (Glioma SNB19M (MGMT+); 168 h) | GI50 (Glioma SNB19M (MGMT+)) | GI50 (Colon DLD1) | GI50 (Glioma U373M (MGMT+); 168 h, read-out: GI50) | GI50 (Glioma U373M (MGMT+); read-out: GI50) | GI50 (Glioma SNB19V (MGMT−); 168 h, read-out: GI50) | GI50 (Glioma SNB19V (MGMT−); read-out: GI50) | GI50 (Glioma SNB19M (MGMT+); 168 h, read-out: GI50) | GI50 (Glioma SNB19M (MGMT+); read-out: GI50) | further results |
| --- | --- | --- | --- | --- | --- | --- | --- | --- | --- | --- | --- | --- | --- | --- | --- |
| C[C@@H](c1ccccc1)n1nnc2c(C(N)=O)ncn2c1=O [BB-002, (S)-3-(−1-Phenylethyl)-8-carbamoylimidazotetrazin-4-one] | 243 µM | 222 µM | 206 µM | 35.3 µM | 34.1 µM | 41.2 µM | 49.7 µM |  |  |  |  |  |  |  | GI50 (Glioma U373M (MGMT+); 168 h): 69.6 µM; GI50 (Glioma U373M (MGMT+)): 95 µM; GI50 (Glioma U373V (MGMT low); 168 h): 61.6 µM; GI50 (Glioma U373V (MGMT low)): 70.7 µM |
| NC(=O)c1ncn2c(=O)n(CCc3ccccc3)nnc12 [DD-001, 4-oxo-3-phenethyl-3,4-dihydroimidazo[5,1-d][1,2,3,5]tetrazine-8-carboxamide] | 498 µM | 424 µM | 302 µM | 77 µM | 128 µM and 91.1 µM | 95 µM | 70.2 µM and 92.6 µM | 385 µM |  |  |  |  |  |  |  |
| NC(=O)Cn1nnc2c(C(N)=O)ncn2c1=O [JJ-001, 2-(8-Carbamoyl-oxoimidazo[5,1-d][1,2,3,5]tetrazin-3(4H)-yl)ethanamide] |  |  |  |  |  |  |  |  | 86.7 µM | 58 µM | 37.5 µM | 38.5 µM | 107 µM | 83.2 µM | GI50 (Glioma U373V (MGMT low); 168 h, read-out: GI50): 56.2 µM; GI50 (Glioma U373V (MGMT low); read-out: GI50): 74.6 µM; activity in words ([4]; glioma MGMT− and MGMT+ cell lines): good activity |
| CCOC(=O)CCn1nnc2c(C(N)=O)ncn2c1=O [LL-002, Ethyl 3-(8-carbamoyl-oxoimidazo[5,1-d][1,2,3,5]tetrazin-3(4H)-yl)propanoate] |  |  |  |  |  |  |  |  | 156 µM | 131 µM | 447 µM | 288 µM | 248 µM | 261 µM | fold less active than the acetic acid ester derivatives LL-003 and PX-016 ([4]; Table 10, glioma cell lines): > 10 fold |
| NC(=O)c1ncn2c(=O)n(Cc3ccco3)nnc12 [PX-004] | 27.2 µM | 53.4 µM | 70.9 µM |  |  |  |  | 45.4 µM |  |  |  |  |  |  | GI50 ([5]; Homo sapiens, MRC5, 168 h): 60.3 µM; GI50 [5]: 55.5 µM; GI50 ([6]; 168 h): 50.1 µM; GI50 [6]: 52.5 µM; GI50 [3]: 55.6 µM |
